Laboratory results reported in patent US8569295B2, “Bicyclic urea compounds” (Merck Patent GmbH, priority 2009, dated 2013).

molecular target: T1, RON kinase (Homo sapiens, UniProt Q04912); experiment: RON kinase biochemical mobility shift assay (Caliper Desktop Profiler); conditions: RON kinase inhibition
T1 construct: purchased Caliper Life Sciences
Description: The Aurora assays described here are performed on two Caliper Life Sciences systems: the LC3000 and the Desktop Profiler. The RON kinase assays are performed on the Desktop Profiler only. These provide data on enzyme activity via measurement of the relative amounts of phosphorylated or unphosphorylated fluorescently labelled substrate peptide at the end of an enzymatic reaction. These different states of peptide are resolved by applying a potential difference across the sample. The presence of the charged phosphate group on the product (as opposed to the substrate) causes a different peptide mobility between the two peptides. This is visualized by excitation of the fluorescent label on the substrate and product peptides and represented as peaks within the analysis software.
The Desktop Profiler utilizes the same priniciple as the LC3000 for calculating percentage conversion of a substrate to product. Caliper Life Sciences provides proprietary flash frozen pre-made 384 well plates containing selected kinases. Each column in the 384 well plate contains a particular selected kinase. A second plate, the ‘substrate plate’ contains a mix of fluorescently labeled peptide substrate and ATP. These are arranged in columns so that transfer for substrate plate to enzyme plate provides the correct enzyme with the correct substrate/ATP concentration. Compounds are added to a thawed enzyme plate in the desired format, in single concentrations. Reactions are initiated by transfer of the substrate/ATP mix from the substrate plate. The enzyme plate is incubated for 90 minutes at 25 C. The reaction is stopped by addition of 70 ul of Stop Buffer (100 mM HEPES pH 7.5, 0.015% Brij-35, 10 mM EDTA (Sigma, E7889)).
Reading of the plate in the Profiler is identical to the LC3000, and the ratio between substrate and product peaks provides the activity of the enzyme in that well. This is best represented by a plate heat map which colors each well by percent inhibition as compared to positive and negative controls (no inhibitors and no ATP respectively).

T1 sequence (Q04912 25-1400): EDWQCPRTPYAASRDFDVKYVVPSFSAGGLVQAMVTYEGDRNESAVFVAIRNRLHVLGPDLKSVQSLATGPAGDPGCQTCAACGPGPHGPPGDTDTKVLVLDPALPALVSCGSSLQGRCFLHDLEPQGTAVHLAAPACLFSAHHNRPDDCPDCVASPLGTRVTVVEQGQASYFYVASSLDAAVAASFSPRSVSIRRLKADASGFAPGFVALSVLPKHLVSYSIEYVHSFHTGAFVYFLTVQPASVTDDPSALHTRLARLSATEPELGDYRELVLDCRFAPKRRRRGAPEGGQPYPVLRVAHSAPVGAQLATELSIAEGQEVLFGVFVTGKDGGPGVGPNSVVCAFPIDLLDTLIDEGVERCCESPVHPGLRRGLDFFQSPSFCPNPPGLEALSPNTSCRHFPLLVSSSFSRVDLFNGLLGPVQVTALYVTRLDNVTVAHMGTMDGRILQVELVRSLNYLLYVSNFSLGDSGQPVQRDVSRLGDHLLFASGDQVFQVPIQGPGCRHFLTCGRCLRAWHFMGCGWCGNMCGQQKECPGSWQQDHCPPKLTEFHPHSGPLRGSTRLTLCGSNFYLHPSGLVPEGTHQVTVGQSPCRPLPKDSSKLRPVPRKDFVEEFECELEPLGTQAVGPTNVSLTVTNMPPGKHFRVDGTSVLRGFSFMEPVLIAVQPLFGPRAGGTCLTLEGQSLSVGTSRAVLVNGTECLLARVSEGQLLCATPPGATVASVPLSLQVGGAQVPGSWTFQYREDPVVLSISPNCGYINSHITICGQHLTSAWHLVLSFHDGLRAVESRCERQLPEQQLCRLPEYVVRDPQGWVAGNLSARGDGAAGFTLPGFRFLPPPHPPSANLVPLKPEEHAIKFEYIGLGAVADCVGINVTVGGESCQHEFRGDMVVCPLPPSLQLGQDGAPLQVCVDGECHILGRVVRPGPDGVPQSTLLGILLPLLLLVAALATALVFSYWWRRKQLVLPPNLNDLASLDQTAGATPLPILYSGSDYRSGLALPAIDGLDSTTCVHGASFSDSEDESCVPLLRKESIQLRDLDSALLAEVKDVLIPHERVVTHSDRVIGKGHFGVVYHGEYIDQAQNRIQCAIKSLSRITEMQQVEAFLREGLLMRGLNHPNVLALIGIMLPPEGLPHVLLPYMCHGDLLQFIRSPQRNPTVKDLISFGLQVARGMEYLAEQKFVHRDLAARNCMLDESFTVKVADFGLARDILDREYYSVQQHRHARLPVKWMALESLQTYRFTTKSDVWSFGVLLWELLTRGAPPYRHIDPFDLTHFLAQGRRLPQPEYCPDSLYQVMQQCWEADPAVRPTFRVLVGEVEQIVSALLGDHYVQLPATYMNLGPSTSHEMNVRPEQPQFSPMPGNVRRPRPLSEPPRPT

| Compound | IC50 [nM] |
| --- | --- |
| Cc1c(C(=O)Nc2ccc(Oc3ccnc4c3C3OCCCN3C(=O)N4)c(F)c2)c(=O)n(-c2ccccc2)n1CC(C)(C)O (centres unmarked) [Example 75, N-{3-fluoro-4-[(6-oxo-3,4,7,11b-tetrahydro-2H,6H-pyrido[2′,3′:4,5]pyrimido[6,1-b][1,3]oxazin-11-yl)oxy]phenyl}-1-(2-hydroxy-2-methylpropyl)-5-methyl-3-oxo-2-phenyl-2,3-dihydro-1H-pyrazole-4-carboxamide] | 100 to 1000 |
| O=C(Nc1ccc(Oc2ccnc3c2CN(CC(F)(F)F)C(=O)N3)c(F)c1)c1cccn(-c2ccc(F)cc2)c1=O [Example 85, N-(3-fluoro-4-{[2-oxo-3-(2,2,2-trifluoroethyl)-1,2,3,4-tetrahydropyrido[2,3-d]pyrimidin-5-yl]oxy}phenyl)-1-(4-fluorophenyl)-2-oxo-1,2-dihydropyridine-3-carboxamide] | 10 to 100 |
| O=C1NCc2c(Nc3ccc(OC(F)(F)F)c(Br)c3)ccnc2N1 [Example 195, 5-(3-Bromo-4-trifluoromethoxy-phenylamino)-3,4-dihydro-1H-pyrido[2,3-d]pyrimidin-2-one] | 100 to 1000 |
| CCN1Cc2c(Oc3ccc(NC(=O)Nc4c(-c5ccccc5)noc4C)cc3F)ccnc2NC1=O [Example 266, 1-[4-(3-Ethyl-2-oxo-1,2,3,4-tetrahydro-pyrido[2,3-d]pyrimidin-5-yloxy)-3-fluoro-phenyl]-3-(5-methyl-3-phenyl-isoxazol-4-yl)-urea] | 100 to 1000 |
| O=C(Nc1ccc([N+](=O)[O-])cc1)Nc1ccc(Oc2ccnc3c2CNC(=O)N3)c(F)c1 [Example 272, 1-[3-Fluoro-4-(2-oxo-1,2,3,4-tetrahydro-pyrido[2,3-d]pyrimidin-5-yloxy)-phenyl]-3-(4-nitro-phenyl)-urea] | 10 to 100 |
| CCN1Cc2c(Oc3ccc(NC(=O)Nc4cc([N+](=O)[O-])ccc4F)cc3F)ccnc2NC1=O [Example 258, 1-[4-(3-Ethyl-2-oxo-1,2,3,4-tetrahydro-pyrido[2,3-d]pyrimidin-5-yloxy)-3-fluoro-phenyl]-3-(2-fluoro-5-nitro-phenyl)-urea] | 100 to 1000 |
| CCN1Cc2c(Oc3ccc(NC(=O)Nc4ccc(Cl)nc4)cc3F)ccnc2NC1=O [Example 264, 1-(6-Chloro-pyridin-3-yl)-3-[4-(3-ethyl-2-oxo-1,2,3,4-tetrahydro-pyrido[2,3-d]pyrimidin-5-yloxy)-3-fluoro-phenyl]-urea] | 100 to 1000 |
| N#Cc1cccc(C(=O)Nc2ccc(Oc3ccnc4c3CNC(=O)N4)c(F)c2)c1 [Example 95, 3-cyano-N-{3-fluoro-4-[(2-oxo-1,2,3,4-tetrahydropyrido[2,3-d]pyrimidin-5-yl)oxy]phenyl}benzamide] | 10 to 100 |
| O=C(Nc1ccc(Oc2ccnc3c2C2OCCCN2C(=O)N3)c(F)c1)c1cccn(-c2ccc(F)cc2)c1=O (centres unmarked) [Example 76, N-{3-fluoro-4-[(6-oxo-3,4,7,11b-tetrahydro-2H,6H-pyrido[2′,3′:4,5]pyrimido[6,1-b][1,3]oxazin-11-yl)oxy]phenyl}-1-(4-fluorophenyl)-2-oxo-1,2-dihydropyridine-3-carboxamide] | 10 to 100 |
| O=C(Nc1cccc(F)c1)Nc1ccc(Oc2ccnc3c2CNC(=O)N3)c(F)c1 [Example 269, 1-[3-Fluoro-4-(2-oxo-1,2,3,4-tetrahydro-pyrido[2,3-d]pyrimidin-5-yloxy)-phenyl]-3-(3-fluoro-phenyl)-urea] | 10 to 100 |
| COc1cccc(C(=O)Nc2ccc(Oc3ccnc4c3CNC(=O)N4)c(F)c2)c1 [Example 96, N-{3-fluoro-4-[(2-oxo-1,2,3,4-tetrahydropyrido[2,3-d]pyrimidin-5-yl)oxy]phenyl}-3-methoxybenzamide] | 10 to 100 |
| Cc1ccc(Nc2ccnc3c2CNC(=O)N3)cc1Br [Example 194, 5-(3-Bromo-4-methyl-phenylamino)-3,4-dihydro-1H-pyrido[2,3-d]pyrimidin-2-one] | 100 to 1000 |
| CCN1Cc2c(Oc3ccc(NC(=O)Nc4ccc5c(c4)OCO5)cc3F)ccnc2NC1=O [Example 263, 1-Benzo[1,3]dioxol-5-yl-3-[4-(3-ethyl-2-oxo-1,2,3,4-tetrahydro-pyrido[2,3-d]pyrimidin-5-yloxy)-3-fluoro-phenyl]-urea] | 10 to 100 |
| O=C1NCc2c(Oc3ccc(NC(=O)c4cccn(-c5ccc(F)cc5)c4=O)nc3)ccnc2N1 [Example 283, 1-(4-Fluoro-phenyl)-2-oxo-1,2-dihydro-pyridine-3-carboxylic acid [5-(2-oxo-1,2,3,4-tetrahydro-pyrido[2,3-d]pyrimidin-5-yloxy)-pyridin-2-yl]-amide] | 100 to 1000 |
| CCN1Cc2c(Oc3ccc(NC(=O)Nc4cc(C)oc4C(F)(F)F)cc3F)ccnc2NC1=O [Example 268, 1-[4-(3-Ethyl-2-oxo-1,2,3,4-tetrahydro-pyrido[2,3-d]pyrimidin-5-yloxy)-3-fluoro-phenyl]-3-(5-methyl-2-trifluoromethyl-furan-3-yl)-urea] | 10 to 100 |
| CC(C)c1ccc(NC(=O)Nc2ccc(Oc3ccnc4c3CNC(=O)N4)c(F)c2)cc1 [Example 273, 1-[3-Fluoro-4-(2-oxo-1,2,3,4-tetrahydro-pyrido[2,3-d]pyrimidin-5-yloxy)-phenyl]-3-(4-isopropyl-phenyl)-urea] | < 10 |
| O=C1NCc2c(Oc3ccc(NC(=O)c4cccc(F)c4)cc3F)ccnc2N1 [Example 98, 3-fluoro-N-{3-fluoro-4-[(2-oxo-1,2,3,4-tetrahydropyrido[2,3-d]pyrimidin-5-yl)oxy]phenyl}benzamide] | 10 to 100 |
| O=C1NCc2c(Oc3ccc(NC(=O)c4cccn(-c5ccc(F)cc5)c4=O)cc3F)ccnc2N1 [Example 59, N-{3-fluoro-4-[(2-oxo-1,2,3,4-tetrahydropyrido[2,3-d]pyrimidin-5-yl)oxy]phenyl}-1-(4-fluorophenyl)-2-oxo-1,2-dihydropyridine-3-carboxamide] | < 10 |
| O=C(Nc1cccc(C(F)(F)F)c1)Nc1ccc(Oc2ccnc3c2CNC(=O)N3)c(F)c1 [Example 270, 1-[3-Fluoro-4-(2-oxo-1,2,3,4-tetrahydro-pyrido[2,3-d]pyrimidin-5-yloxy)-phenyl]-3-(3-trifluoromethyl-phenyl)-urea] | 10 to 100 |
| CCN1Cc2c(Oc3ccc(NC(=O)Nc4cc(C)cs4)cc3F)ccnc2NC1=O [Example 267, 1-[4-(3-Ethyl-2-oxo-1,2,3,4-tetrahydro-pyrido[2,3-d]pyrimidin-5-yloxy)-3-fluoro-phenyl]-3-(4-methyl-thiophen-2-yl)-urea] | 10 to 100 |
| O=C(Nc1ccc(Oc2ccnc3c2CNC(=O)N3)c(F)c1)Nc1ccc(C(F)(F)F)cc1Cl [Example 274, 1-(2-Chloro-4-trifluoromethyl-phenyl)-3-[3-fluoro-4-(2-oxo-1,2,3,4-tetrahydro-pyrido[2,3-d]pyrimidin-5-yloxy)-phenyl]-urea] | 100 to 1000 |
| O=C1NCc2c(Oc3ccc(NC(=O)c4ccc(Br)cc4)cc3F)ccnc2N1 [Example 99, 4-bromo-N-{3-fluoro-4-[(2-oxo-1,2,3,4-tetrahydropyrido[2,3-d]pyrimidin-5-yl)oxy]phenyl}benzamide] | < 10 |
| CCN1Cc2c(Oc3ccc(NC(=O)c4cccn(-c5ccc(F)cc5)c4=O)cc3F)ccnc2NC1=O [Example 84, N-{4-[(3-ethyl-2-oxo-1,2,3,4-tetrahydropyrido[2,3-d]pyrimidin-5-yl)oxy]-3-fluorophenyl}-1-(4-fluorophenyl)-2-oxo-1,2-dihydropyridine-3-carboxamide] | < 10 |
